In ChEMBL document CHEMBL3120151, “Synthesis and in vivo evaluation of N-ethylamino-2-oxo-1,2-dihydro-quinoline-3-carboxamide for inhibition of intestinal tumorigenesis in APC(Min/+) mice” (Bioorg Med Chem Lett, 2014):
Activity calls are given as the source filed them. No cut-off for these calls is given here.

Key:
Mus musculus [1] = experiment: Antitumor activity against intestinal polyp in APCMin/+ mouse model assessed as reduction in intestinal polyp formation with size >2 mm at 150 ppm administered with diet from week 6 to week 18 relative to control; format: functional
Mus musculus [2] = experiment: Antitumor activity against intestinal polyp in APCMin/+ mouse model at 150 ppm administered with diet from week 6 to week 18 relative to control; format: functional
Mus musculus [3] = experiment: Toxicity in APCMin/+ mouse model assessed as change in body weight at 150 ppm administered with diet from week 6 to week 18 relative to control; format: organism-based; settings: in vivo, po
Cancer cell lines = experiment: Antitumor activity against colon cancer cells in APCMin/+ mouse model assessed as inhibition of colon tumor formation at 150 ppm administered with diet from week 6 to week 18 relative to control; format: functional

NCCNC(=O)c1cc2ccccc2[nH]c1=O
Activity (Mus musculus [1]): Active | Activity (Mus musculus [2]): inactive | Activity (Mus musculus [3]): Non-toxic | Activity (Cancer cell lines): inactive
